In US20070286896A1, “Therapeutic or Diagnostic Drug for Inflammatory Disease Comprising Targeting Liposome” (NATIONAL INSTITUTE OF ADVANCED INDUSTRIAL SCIENCE AND …, priority 2003, published 2007):

How the values were obtained:
Type in all cases: in vivo, DBA/1J mice
[1] = system: Collagen type II induced arthritis (CIA) mice; assay: Test for determining proper amount of prednisolone phosphate for RA mice; settings: Day 28 to Day 46
[2] = system: Collagen type II induced arthritis (CIA) mice; assay: Medical treatment of RA mice by oral administration of DDS liposomes; settings: oral three times/week Day 28 to Day 39; free Pred 100 μg, L-Pred 10 μg per administration
Description: (§1) A water solution of the collagen and the CFA were mixed at a volume ratio of 2:1 to prepare an emulsion containing 200 μg of the collagen per 100 μL thereof. This emulsion was subcutaneously injected into the bottom of the tails of the mice (Day 0). After 21 days from the administration (Day 21), a water solution of the collagen and the IFA were mixed at a volume ratio of 2:1 to prepare an emulsion containing 200 μg of the collagen per 100 μL thereof, and this emulsion was subcutaneously injected again into the bottom of the tails of the mice.
(§2) After the injection, the limbs of the mice were observed on a three times/week basis, and inflammation was quantitatively determined by giving it a point according to the following criteria: for each limb, normal: 0 point, mild inflammation or redness: 1 point, severe redness, dilatation, or reduced use: 2 points, and deformed palm, plantar region, or joint region: 3 points (0 point lowest, 12 points highest, per mouse). Inflammatory activity (hereinafter, referred to as IA) was determined by applying the obtained point to the following formula: Inflammatory activity (%)=points of all limbs/12×100.
Mice with arthritis received medical treatment by orally administering a therapeutic drug to the mice. The oral administration was performed on a three times/week basis for a period from Day 28 to Day 39. […]

[3] = system: Collagen type II induced arthritis (CIA) mice; assay: Medical treatment of RA mice by intravenous administration of DDS liposomes
Description: as §1, §2
Mice with arthritis received medical treatment by injecting a therapeutic drug to the tail veins thereof. The intravenous injection was performed on a twice/week basis for a period from Day 28 to Day 46. […]

## C[C@]12C=CC(=O)C=C1CC[C@@H]1[C@@H]2[C@@H](O)C[C@@]2(C)[C@H]1CC[C@]2(O)C(=O)COP(=O)(O)O [prednisolone phosphate]
[1]; intravenous 250 μg/injection (500 μg/week)
  IA compared with control group: No significant difference
[1]; intravenous 500 μg/injection (1000 μg/week)
  rise in IA / progression of the inflammation: a rise in IA was not observed, and the progression of the inflammation was suppressed
[2]
  difference in IA among the control, free Pred (until Day 32) and L-Pred groups: no significant difference
[3]; intravenous 100 μg/injection (200 μg/week) prednisolone phosphate, Day 37
  Inflammatory activity (IA): approximately 50%
[3]; intravenous twice/week Day 28 to Day 46, free Pred 100 μg/injection, liposomes 10 μg/injection
  IA compared with other groups / progression of inflammation: no evident difference was observed between the IA of the free Pred group and the IA of the Control group
